In ChEMBL document CHEMBL1148930, “DNA polymerase beta lyase inhibitors from Maytenus putterlickoides” (J Nat Prod, 2004):

Key:
[1] = biological target: DNA polymerase beta (Rattus norvegicus, UniProt P06766); experiment: Inhibition of lyase activity of rat DNA polymerase beta after 30 mins by deoxyribose phosphate excision assay
[2] = tested on: A549; experiment: Cytotoxicity against human A549 cells assessed as cell viability at 200 uM after 48 hrs by MTT assay relative to control; type: functional; conditions: A549, 48 h, read-out: Activity
[3] = tested on: A549; experiment: Cytotoxicity against human A549 cells assessed as cell viability at 62.5 uM after 48 hrs by MTT assay relative to control; type: functional; conditions: A549, 48 h, read-out: Activity
[4] = tested on: A549; experiment: Potentiation of methyl methanesulfonate-induced cytotoxicity against human A549 cells assessed as cell viability after 48 hrs by MTT assay relative to control; type: functional

SMILES | IC50 [1] [µM] | viability at 200 µM [2] [%] | viability at 62.5 µM [3] [%] | Activity [4] [%]
C=C(COC(=O)c1ccc(O)cc1)[C@@H]1CC[C@]2(C)CC[C@]3(C)[C@H](C[C@@H](O)[C@@H]4[C@@]5(C)CCC(=O)C(C)(C)[C@@H]5CC[C@]43C)[C@@H]12 | 62.8 | 100 | 100 | 100
Oc1cc(O)c2c(c1)O[C@H](c1ccc(O)c(O)c1)[C@H](O)C2 [(-)-EPICATECHIN] | 18.5 | 100 | 100 | 86.6
